From patent US20060079453A1, “Hla binding peptides and their uses” (priority 2002, published 2006)
No end group written: not given here.

Assays:
Assay in all cases: biochemical
Assay type in all cases: binding
HLA-DR DRB1*1101 (DR11) = HLA-DR DRB1*1101 (DR11) (Homo sapiens, UniProt P01903+P01911, A100R/A169T/A87E/I96F/K41T/L162R/M171V/P40S/Q125H/Q178H/Q39Y/Q99D/R42S/S66Y/T262R/V115G/W38E); conditions: DRB1 *1101
HLA-DR DRB4*0101 (DR53) = HLA-DR DRB4*0101 (DR53) (Homo sapiens, UniProt P01903+P13762, G164S); conditions: DRB4 *0101
HLA-DR DRB1*0401 (DR4) = HLA-DR DRB1*0401 (DR4) (Homo sapiens, UniProt P01903+P01911, A100K/A169T/F76Y/I96L/K127E/L162R/M171V/N62H/P40V/Q125Y/R42H/S133A/S149N/S66Y/V115G/V209L/W38E); conditions: DRB1 *0401
HLA-DR DRB1*0802 (DR8) = HLA-DR DRB1*0802 (DR8) (Homo sapiens, UniProt P01903+P01911, A100R/A103L/A169T/F76Y/H45Y/I96F/K41T/L162R/M171V/P40S/Q125H/Q178H/Q39Y/Q99D/R218S/R42G/S66Y/V115G/W38E)
HLA-DR DRB3*0101 (DR52) = HLA-DR DRB3*0101 (DR52) (Homo sapiens, UniProt P01903+P79483)
HLA-DR DRB1*0101 (DR1) = HLA-DR DRB1*0101 (DR1) (Homo sapiens, UniProt P01903+P01911, A100R/D57E/F55L/F60I/F76Y/I96L/L162R/M171V/P40L/Q125E/R42F/V115G/Y59C); conditions: DRB1 *0101
HLA-DR DRB1*1501 (DR15) = HLA-DR DRB1*1501 (DR15) (Homo sapiens, UniProt P01903+P01911); conditions: DRBI *1501
HLA-DR DRB1*1302 (DR13) = HLA-DR DRB1*1302 (DR13) (Homo sapiens, UniProt P01903+P01911, A100E/A169T/K41T/L162R/M171V/P40S/Q125H/Q178H/Q39Y/Q99D/R42S/S66N/T262R/V115G/W38E/Y61H); conditions: DRBI *1302
HLA-DR DRB1*0901 (DR9) = HLA-DR DRB1*0901 (DR9) (Homo sapiens, UniProt P01903+P01911, A100R/A103E/D57H/D86V/F55Y/F60I/F76Y/I96F/K127E/L162R/M171V/P40D/Q125H/Q99R/R33Q/R42F/S133A/S66N/T210M/V115G/W38K/Y107V/Y59G/Y89S); conditions: DRB1 *0901
HLA-DR DRB5*0101 (DR51) = HLA-DR DRB5*0101 (DR51) (Homo sapiens, UniProt P01903+Q30154); conditions: DRB5 *0101
HLA-DR DRB1*0701 (DR7) = HLA-DR DRB1*0701 (DR7) (Homo sapiens, UniProt P01903+P01911, A100R/A102G/A103Q/D57E/D86V/E43K/F76Y/K127E/L162R/M171V/P40G/Q125H/Q99D/R33Q/R42Y/R54Q/S133A/S66F/T210M/V115G/Y107V/Y59L/Y89S); conditions: DRB1 *0701

Sequence of HLA-DR DRB1*1302 (DR13) (P01903 26-254 limits assumed, other chains not shown): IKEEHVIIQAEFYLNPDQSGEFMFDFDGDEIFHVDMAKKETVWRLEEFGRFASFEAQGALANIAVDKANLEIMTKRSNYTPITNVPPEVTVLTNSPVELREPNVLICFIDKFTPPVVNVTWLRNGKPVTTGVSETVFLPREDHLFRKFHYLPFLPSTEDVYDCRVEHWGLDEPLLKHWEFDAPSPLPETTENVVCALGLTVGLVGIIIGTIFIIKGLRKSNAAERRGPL
Sequence of HLA-DR DRB1*1101 (DR11) (P01903 26-254 limits assumed, other chains not shown): as above

Compound | IC50 (HLA-DR DRB1*1101 (DR11)) [µM] | IC50 (HLA-DR DRB4*0101 (DR53)) [µM] | IC50 (HLA-DR DRB1*0401 (DR4)) [µM] | IC50 (HLA-DR DRB1*0802 (DR8)) [µM] | IC50 (HLA-DR DRB3*0101 (DR52)) [µM] | IC50 (HLA-DR DRB1*0101 (DR1)) [µM] | IC50 (HLA-DR DRB1*1501 (DR15)) [µM] | IC50 (HLA-DR DRB1*1302 (DR13)) [µM] | IC50 (HLA-DR DRB1*0901 (DR9)) [µM] | IC50 (HLA-DR DRB5*0101 (DR51)) [µM] | IC50 (HLA-DR DRB1*0701 (DR7)) [µM]
RVPVSHSFPHPLYNM | > 200 | 9.21 | > 16 | 100 | > 14.9 | 0.067 | 5.52 | 0.377 | 0.097 |  | 
CC[C@H](C)[C@H](NC(=O)[C@@H]1CCCN1C(=O)[C@H](Cc1c[nH]cn1)NC(=O)[C@@H](NC(=O)[C@@H]1CCCN1C(=O)[C@@H](NC(=O)[C@H](CO)NC(=O)[C@@H]1CCCN1C(=O)[C@H](CC(C)C)NC(=O)CNC(=O)[C@@H](NC(=O)[C@H](C)NC(=O)[C@H](CCC(=O)O)NC(=O)[C@H](C)N)C(C)C)[C@@H](C)CC)C(C)C)C(=O)NCC(=O)O | > 66.7 |  | 9.92 | > 490 | > 11.8 | 0.0054 | 0.056 | 5.46 | 23.1 | 69.3 | 2.02
CC[C@H](C)[C@H](NC(=O)[C@H](CO)NC(=O)[C@@H](NC(=O)CNC(=O)[C@H](CCC(=O)O)NC(=O)[C@@H]1CCCN1)C(C)C)C(=O)N[C@@H](Cc1c[nH]c2ccccc12)C(=O)N[C@@H](CC(N)=O)C(=O)N1CCC[C@H]1C(=O)N[C@H](C(=O)N[C@@H](CC(C)C)C(=O)N[C@@H](CC(C)C)C(=O)N[C@@H](Cc1c[nH]c2ccccc12)C(=O)N[C@@H](CCC(N)=O)C(=O)N1CCC[C@H]1C(=O)O)[C@@H](C)CC | 30.9 | 0.107 | 1.78 | 28.6 | 4.62 |  | 0.0072 |  | 103 | 22.2 | 15
NMSLLKHQSLRPDED [NMSLLKHQSLRPDED] | 25.8 |  | > 40 | 26.5 | > 14.9 | 3.13 | > 30.3 | > 35 | 96.8 | > 100 | 
CSCC[C@H](NC(=O)[C@H](CCC(=O)O)NC(=O)[C@H](CCC(N)=O)NC(=O)[C@@H]1CCCN1)C(=O)N[C@@H](CCCCN)C(=O)N[C@H](C(=O)N[C@@H](Cc1ccc(O)cc1)C(=O)N[C@@H](CO)C(=O)N[C@H](C(=O)N[C@@H](CO)C(=O)N[C@@H](Cc1ccccc1)C(=O)N[C@@H](CC(=O)O)C(=O)N[C@@H](CO)C(=O)N[C@@H](CC(C)C)C(=O)N[C@@H](Cc1ccccc1)C(=O)O)C(C)C)[C@@H](C)O | > 50 | 0.579 | 3.02 | > 98 | 14.6 | 15.1 | 0.919 | 24.7 | 1.98 | ≥ 100 | 
CC[C@H](C)[C@H](NC(=O)[C@@H](N)CC(C)C)C(=O)N[C@@H](CCSC)C(=O)N[C@@H](Cc1ccc(O)cc1)C(=O)N[C@@H](CO)C(=O)N[C@@H](C)C(=O)N[C@@H](Cc1c[nH]cn1)C(=O)N[C@@H](CC(=O)O)C(=O)N[C@H](C(=O)N[C@H](C(=O)N[C@H](C(=O)N[C@@H](CO)C(=O)NCC(=O)N[C@@H](CC(C)C)C(=O)N[C@@H](CCC(N)=O)C(=O)O)C(C)C)[C@@H](C)O)[C@@H](C)O | > 66.7 | 4.38 | 0.024 | 24.8 | 6.83 | 4.5 | 0.184 | 1.75 | 0.813 | > 100 | 
CC[C@H](C)[C@H](NC(=O)[C@H](CCC(N)=O)NC(=O)[C@@H](NC(=O)[C@H](Cc1ccccc1)NC(=O)[C@H](CC(N)=O)NC(=O)[C@H](Cc1ccc(O)cc1)NC(=O)[C@H](CC(C)C)NC(=O)[C@H](Cc1ccccc1)NC(=O)[C@@H](N)CCCCN)[C@@H](C)O)C(=O)N1CCC[C@H]1C(=O)N[C@@H](Cc1c[nH]cn1)C(=O)N[C@@H](CC(C)C)C(=O)N[C@@H](C)C(=O)NCC(=O)N[C@H](C(=O)O)[C@@H](C)O | 0.091 | 0.256 |  | 0.415 | 10.2 | 0.34 |  | 0.221 | 0.054 | 1.6 | 0.03
LSGLHGQDLFGIWSK | 30.2 |  | > 26.7 | > 81.7 | > 8.83 | 0.148 | 32.2 | > 35 | > 125 | 81.7 | > 35.7
CC(C)C[C@H](NC(=O)[C@H](CCC(N)=O)NC(=O)[C@H](C)NC(=O)[C@H](CC(N)=O)NC(=O)[C@H](CCCCN)NC(=O)[C@@H](NC(=O)[C@H](CCCCN)NC(=O)[C@H](CC(N)=O)NC(=O)CN)C(C)C)C(=O)N[C@@H](C)C(=O)NCC(=O)N[C@@H](C)C(=O)N[C@@H](CCCCN)C(=O)NCC(=O)N[C@H](C(=O)O)C(C)C | > 66.7 |  |  | 28.9 | > 12.5 | 0.677 | > 45.5 | > 35 | 7.88 | 1.22 | > 83.3
CC[C@H](C)[C@H](NC(=O)[C@H](CO)NC(=O)[C@H](CO)NC(=O)[C@H](CC(=O)O)NC(=O)[C@H](C)NC(=O)[C@H](CC(N)=O)NC(=O)[C@@H](NC(=O)[C@H](Cc1ccc(O)cc1)NC(=O)[C@H](C)NC(=O)[C@@H](NC(=O)CN)C(C)C)[C@@H](C)CC)C(=O)N[C@@H](CCC(=O)O)C(=O)NCC(=O)N[C@@H](CC(N)=O)C(=O)N[C@@H](Cc1ccc(O)cc1)C(=O)O | > 40 | 0.477 | 0.146 | 23.4 | 1.42 |  | 7.61 |  | 3.05 | 66.7 | 6.24
GQRVPVSHSFPHPLY | > 200 | 9.86 | > 40 | > 245 | > 14.9 | 1.56 |  | 0.703 | 0.102 | > 200 | 0.629
LRMMNDQLMFLERAF | 1.83 | 0.05 | 0.392 | 2.49 | 1.57 | 2.7 |  | 1.31 | 4.6 | 0.758 | 17.5
CC[C@H](C)[C@H](NC(=O)[C@@H](NC(=O)[C@H](Cc1c[nH]cn1)NC(=O)[C@@H](N)CCCNC(=N)N)C(C)C)C(=O)N[C@@H](Cc1ccc(O)cc1)C(=O)N[C@@H](C)C(=O)N1CCC[C@H]1C(=O)N[C@@H](CO)C(=O)N[C@@H](CO)C(=O)N[C@@H](Cc1c[nH]cn1)C(=O)N[C@@H](CC(N)=O)C(=O)N[C@@H](CCCCN)C(=O)N[C@@H](Cc1ccc(O)cc1)C(=O)N[C@@H](C)C(=O)NCC(=O)O | 13.4 | 5.29 | 0.481 | 11.7 | > 62.8 | 2.17 |  |  | 0.481 | 0.088 | 31.2
TNKFSGYPLYHSVYE | 33.3 |  | 5.52 | 0.614 | > 21.9 | 3.4 | 0.489 | > 35 | 0.741 | 2.94 | 30.9
CC[C@H](C)[C@H](NC(=O)[C@H](CO)NC(=O)[C@H](CC(N)=O)NC(=O)[C@H](C)NC(=O)[C@H](CC(C)C)NC(=O)[C@H](CCC(=O)O)NC(=O)[C@H](Cc1ccccc1)NC(=O)[C@@H](N)C(C)C)C(=O)N[C@H](C(=O)N[C@@H](CC(C)C)C(=O)N1CCC[C@H]1C(=O)N[C@@H](Cc1ccccc1)C(=O)N[C@@H](CC(=O)O)C(=O)N[C@@H](CS)C(=O)N[C@@H](CCCNC(=N)N)C(=O)O)C(C)C | 11.8 |  | 0.999 | 36.1 | 0.128 | 0.019 | 0.477 | 0.024 | 0.05 |  | 0.039
